Source: publication PMC7528081, “The electrophysiological effect of cannabidiol on hERG current and in guinea-pig and rabbit cardiac preparations” (Scientific Reports, 2020)

Target: T1, hERG potassium channel (Homo sapiens, UniProt Q12809)
T1 construct: gene KCNH2
Test: automated whole-cell patch clamp (Patchliner), HEK […] cells expressing hERG, room temperature
Assay type: cell-based

T1 sequence (Q12809 whole entry): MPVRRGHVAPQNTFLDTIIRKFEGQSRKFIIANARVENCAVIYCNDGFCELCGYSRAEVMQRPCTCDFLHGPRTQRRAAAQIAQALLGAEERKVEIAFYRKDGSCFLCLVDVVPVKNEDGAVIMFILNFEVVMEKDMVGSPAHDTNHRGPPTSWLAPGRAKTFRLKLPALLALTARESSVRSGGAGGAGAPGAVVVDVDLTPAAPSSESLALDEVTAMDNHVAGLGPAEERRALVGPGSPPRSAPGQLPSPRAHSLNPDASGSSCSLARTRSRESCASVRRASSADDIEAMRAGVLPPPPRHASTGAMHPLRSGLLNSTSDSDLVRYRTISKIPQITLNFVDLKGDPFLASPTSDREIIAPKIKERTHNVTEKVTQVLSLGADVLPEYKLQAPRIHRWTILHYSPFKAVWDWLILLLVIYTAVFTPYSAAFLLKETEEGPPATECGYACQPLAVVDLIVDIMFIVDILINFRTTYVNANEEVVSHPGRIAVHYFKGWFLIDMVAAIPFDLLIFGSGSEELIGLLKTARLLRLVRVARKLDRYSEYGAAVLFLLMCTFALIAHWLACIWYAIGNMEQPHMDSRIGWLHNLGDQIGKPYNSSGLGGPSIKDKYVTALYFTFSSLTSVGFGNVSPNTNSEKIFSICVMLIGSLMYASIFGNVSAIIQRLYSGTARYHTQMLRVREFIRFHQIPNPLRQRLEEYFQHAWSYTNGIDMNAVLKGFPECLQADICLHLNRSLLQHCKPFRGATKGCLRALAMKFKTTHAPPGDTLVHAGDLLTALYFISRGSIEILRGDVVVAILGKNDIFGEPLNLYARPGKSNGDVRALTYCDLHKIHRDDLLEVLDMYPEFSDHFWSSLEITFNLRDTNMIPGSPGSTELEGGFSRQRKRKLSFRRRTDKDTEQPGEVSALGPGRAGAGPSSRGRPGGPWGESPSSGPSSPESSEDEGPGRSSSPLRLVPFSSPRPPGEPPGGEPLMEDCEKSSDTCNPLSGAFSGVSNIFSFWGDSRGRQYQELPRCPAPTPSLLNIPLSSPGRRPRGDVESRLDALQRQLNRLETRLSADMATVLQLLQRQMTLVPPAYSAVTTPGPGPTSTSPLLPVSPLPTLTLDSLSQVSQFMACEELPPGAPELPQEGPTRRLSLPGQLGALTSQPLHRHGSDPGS

SMILES	IC50 [µM]
C=C(C)[C@@H]1CCC(C)=C[C@H]1c1c(O)cc(CCCCC)cc1O [cannabidiol]	2.07 ± 0.12
CCCCCc1cc(O)c2c(c1)OC(C)(C)[C@@H]1CCC(C)=C[C@@H]21 [tetrahydrocannabinol]	10.3 ± 0.55
CCCCCc1cc(O)c2c(c1)OC(C)(C)[C@@H]1CCC(C(=O)O)=C[C@@H]21 [11-nor-9-carboxy-tetrahydrocannabinol]	65.4 ± 3.82
